According to PubChem BioAssay (NCI):
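Test compounds were applied to cells in 96-well plates for 48 hours at 5 doses. The concentration for full growth arrest is given as TGI.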

Assays:
Assay in all cases: inhibition of tumour cell growth, NCI panel, 48 h
[1] = system: UO-31 renal
[2] = system: HOP-92 NSCLC
[3] = system: SR leukemia
[4] = system: TK-10 renal
[5] = system: HS 578T breast
[6] = system: SF-539 CNS
[7] = system: SK-MEL-5 melanoma
[8] = system: OVCAR-3 ovarian
[9] = system: MDA-MB-435
[10] = system: SF-268 CNS
[11] = system: MDA-N
[12] = system: MCF7 breast
[13] = system: OVCAR-5 ovarian
[14] = system: PC-3 prostate
[15] = system: NCI-H522 lung
[16] = system: SK-MEL-2 melanoma
[17] = system: UACC-62 melanoma
[18] = system: SW-620 colon
[19] = system: SN12C renal
[20] = system: HT29 colon
[21] = system: HOP-62 NSCLC
[22] = system: RXF 393 renal
[23] = system: BT-549 breast
[24] = system: COLO 205 colon
[25] = system: CAKI-1 renal
[26] = system: LOX IMVI melanoma
[27] = system: MALME-3M melanoma
[28] = system: UACC-257 melanoma
[29] = system: OVCAR-4 ovarian
[30] = system: A549 NSCLC
[31] = system: MDA-MB-231 breast
[32] = system: SNB-19 CNS
[33] = system: SF-295 CNS
[34] = system: HCC-2998 colon
[35] = system: DU-145 prostate
[36] = system: MOLT-4 leukemia
[37] = system: U251 CNS
[38] = system: EKVX NSCLC
[39] = system: 786-0 renal
[40] = system: NCI-H226 lung
[41] = system: RPMI-8226 leukemia
[42] = system: M14 melanoma
[43] = system: K-562 leukemia
[44] = system: KM12 colon
[45] = system: A498 renal
[46] = system: IGROV1 ovarian
[47] = system: HCT-15 colon
[48] = system: OVCAR-8 ovarian
[49] = system: NCI-H23 lung
[50] = system: HL-60(TB) leukemia
[51] = system: ACHN renal
[52] = system: NCI/ADR-RES ovarian
[53] = system: SK-MEL-28 melanoma
[54] = system: NCI-H460 lung
[55] = system: HCT-116 colon

C=CC[C@H](O)[C@@](NC(=O)OCc1ccccc1)(Sc1ccc(C)cc1)C(F)(F)F
TGI [1]: 55.4 µM | TGI [2]: > 100 µM | TGI [3]: 60.9 µM | TGI [4]: > 100 µM | TGI [5]: 82.8 µM | TGI [6]: 29.7 µM | TGI [7]: > 100 µM | TGI [8]: 48.5 µM | TGI [9]: 84 µM | TGI [10]: 47.9 µM | TGI [11]: 46.6 µM | TGI [12]: > 100 µM | TGI [13]: 75.4 µM | TGI [14]: > 100 µM | TGI [15]: 32.4 µM | TGI [16]: 75.8 µM | TGI [17]: > 100 µM | TGI [18]: > 100 µM | TGI [19]: 45.8 µM | TGI [20]: > 100 µM | TGI [21]: 78.1 µM | TGI [22]: 53 µM | TGI [23]: 29.4 µM | TGI [24]: 39.1 µM | TGI [25]: 87.7 µM | TGI [26]: 16.9 µM | TGI [27]: > 100 µM | TGI [28]: 74.1 µM | TGI [29]: > 100 µM | TGI [30]: > 100 µM | TGI [31]: 59.8 µM | TGI [32]: > 100 µM | TGI [33]: 66.7 µM | TGI [34]: > 100 µM | TGI [35]: > 100 µM | TGI [36]: 87.2 µM | TGI [37]: 28.4 µM | TGI [38]: > 100 µM | TGI [39]: 32.7 µM | TGI [40]: 35.9 µM | TGI [41]: 71.6 µM | TGI [42]: 74.4 µM | TGI [43]: > 100 µM | TGI [44]: > 100 µM | TGI [45]: > 100 µM | TGI [46]: 24 µM | TGI [47]: > 100 µM | TGI [48]: 35.3 µM | TGI [49]: 70.2 µM | TGI [50]: 28.9 µM | TGI [51]: > 100 µM | TGI [52]: > 100 µM | TGI [53]: > 100 µM | TGI [54]: > 100 µM | TGI [55]: 60.5 µM
